For test [1], the system named is H460 cells. Nature of the test: In vitro cell proliferation inhibition under normoxia (96-well, CTG, 72 hours). The settings on record: for inhibition at 0.25 µM / inhibition at 0.5 µM / inhibition at 1 µM / IC50: Homo sapiens, 72 hours; for inhibition at 0.25 µM / inhibition at 0.5 µM / inhibition at 1 µM: NCI-H460; for inhibition at 0.25 µM: Nutlin-3 0.25 µM; for inhibition at 0.5 µM: Nutlin-3 0.5 µM; for inhibition at 1 µM: Nutlin-3 1 µM; for IC50: NCI-H460, 72 h. Format: cell-based, human. The procedure:
Overview of the experimental process • 1) H460 cell suspension was added to a 96-well plate at 100 µL per well, with a cell density of 2000 /well. • 2) The cells were cultured overnight in an incubator at 37°C, 5% CO2. • 3) Compound Treatment
Monotherapy: After 24 hours of cell plating, each well was supplied with 99.5 µL of growth medium then added with 0.5µL of test compounds at different concentrations, shaken gently to ensure even mixing, and then placed at 37°C, 5% CO2 in an incubator.
Combination therapy: After 24 hours of cell plating, each well was supplied with 99 µL of growth medium then added with 0.5µL of the combined action compound Nutlin-3, shaken gently to ensure even mixing, and then placed in an incubator for 2 hours. Then each well was added with 0.5µL of test compounds at different concentrations, shaken gently to ensure even mixing, and then placed at 37°C, 5% CO2 in an incubator.
(§1) 4) The cell plate was placed in the incubator for 72 hours.
(§2) 5) The cell plate to be tested was placed at room temperature to equilibrium for 30 minutes, and 100µL of medium was discarded per well.
(§3) 6) 25µL of CTG reagent was added to each well, placed at a fast shaker to shake for 2 minutes, and placed at room temperature away from light for 30 minutes.
(§4) 7) The chemiluminescence signal value was read using a multifunctional microplate reader with a reading time of 1000 ms.
8) IC50 was calculated with Graph Pad Prism 5 software.
(§5) • 1) H460 and HPAF-II cell suspensions were added to a 96-well plate at 100 µL per well, with a cell density of 2000 /well and 20000/well, respectively. • 2) The cells were cultured overnight in an incubator at 37°C, 5% CO2. • 3) Compound Treatment
(§6) Combination therapy: After 24 hours of cell plating, 99 µL of growth medium was supplied to each well. Each well was added with 0.5 µL of Nutlin-3 or RITA, shaken gently to ensure even mixing, and then placed in an incubator for 2 hours. Then each well was added with 0.5µL of test compounds at different concentrations, shaken gently to ensure even mixing, and then placed at 37°C, 5% CO2 in an incubator.
(§7) Monotherapy: After 24 hours of cell plating, 99.5 µL of growth medium was supplied to each well. Then each well was added with 0.5µL of test compounds at different concentrations, shaken gently to ensure even mixing, and then placed at 37°C, 5% CO2 in an incubator.
(§8) 7) The chemiluminescence signal value was read using a multifunctional microplate reader with a reading time of 1000 ms. The corresponding inhibition rate data were calculated.
(§9) • 1) NCI-H460, NCI-H460 P53KO # 1 cell suspensions were added to a 96-well plate at 100 µL per well, with a cell density of 2000 /well. • 2) The cells were cultured overnight in an incubator at 37°C, 5% CO2. • 3) Compound Treatment
(§10) Combination therapy: After 24 hours of cell plating, 99 µL of medium was supplied to each well. Each well was added with 0.5µL of combined action compound, shaken gently to ensure even mixing, and then placed in an incubator for 2 hours. Then each well was added with 0.5µL of test compounds at different concentrations, shaken gently to ensure even mixing, and then placed at 37°C, 5% CO2 in an incubator.
(§11) 8) The ICso (half maximal inhibitory concentration) values were calculated using GraphPad Prism 5 software.

For the next test, the system named is HPAF-II cells. Nature of the test: In vitro cell proliferation inhibition (96-well, CTG, 72 hours). In kind it is cell-based. The settings on record: Homo sapiens, HPAF-II cells, 72 hours; for inhibition at 7.5 µM: Nutlin-3 7.5 µM; for inhibition at 10 µM: Nutlin-3 10 µM; for inhibition at 15 µM: Nutlin-3 15 µM. As for the experimental part: as §5, §6, §7, §1, §2, §3, §8

Test [2] deals with H460 cells. Nature of the test: Cell cycle G2/M arrest, PI staining flow cytometry. In kind it is cell-based. Particulars: for cell cycle (G0/G1, S, G2/M phases): first experiment, 0.1 nM AST-3424, 5 µM Nutlin-3, 24 hours, combination: AST-3424 first (Figure 5). The procedure: Overview of the experimental process: • 1) H460/HPAF-II cell suspensions were added to a 24-well plate, with a cell density of 100000 /well and 995 µL of medium per well. • 2) The cells were cultured overnight in an incubator at 37°C, 5% CO2. • 3) Compound Treatment
4) The cells were digested, centrifuged at 1000 g at 4°C, washed once with pre-cooled PBS, centrifuged at 1000 g at 4°C, and fixed with 1 mL of pre-cooled 70% ethanol at -20°C overnight.
5) The cells were centrifuged at 3000g at 4°C, washed once with pre-cooled PBS (phosphate buffer), centrifuged at 3000g at 4°C. Prepare PI staining solution. The cells were stained at 37°C away from light for 30 minutes, and stored in an ice bath away from light. Flow cytometric detection was performed on the same day, and the proportion of cells in different cell cycle phases was analyzed using FlowJo.

Another test relates to H460 P53 KO #1. Nature of the test: In vitro cell proliferation inhibition under normoxia, p53 knockout cells. Format: cell-based, human. Particulars: Homo sapiens, NCI-H460, 72 h, 72 hours. As for the experimental part:
(§12) The p53 CRISPR/Cas9 KO plasmid (human) and p53 HDR plasmid (human) were purchased from Santa Cruz Company to construct H460 P53 KO cell lines, namely p53 knockout (KnockOut) H460 cell lines. Three groups of H460 P53 KO cell lines were constructed with numbers of H460 P53 KO # 1, H460 P53 KO # 7, and H460 P53 KO # 12.
(§13) After co-incubation for 15 minutes, they were added dropwise to the culture medium and mixed well.
(§14) After 48 h, 2 µg/mL puromycin was added for screening.
(§15) When the cell colonies grew to a sufficient size, single colonies were picked and cultured.
(§16) When the cell number reached a sufficient quantity, samples were collected for WB identification of the colonies.
(§17) H460 P53 KO cell lines, i.e. H460 P53 KO # 1, H460 P53 KO # 7, H460 P53 KO # 12 cell lines were used in experiments, respectively.
as §9, §7, §10, §1, §2, §3, §4, §11

Another test relates to H460 P53 KO #12. The description is as above. Particulars: Homo sapiens, NCI-H460; H460 P53 KO # 12, normoxia, 72 hours; alone or with 3µM AST-3021 as labelled (Example 10). Format: cell-based, human. As for the experimental part:
as §12, §13, §14, §15, §16, §17

Another test concerns H460 P53 KO #7. The test is described as above. In kind it is cell-based, human. The settings on record: Homo sapiens, NCI-H460; H460 P53 KO # 7, normoxia, 72 hours; alone or with 3µM AST-3021 as labelled (Example 10). As for the experimental part: as §12, §13, §14, §15, §16, §17

Read-outs that look alike come from different tables or passages of the source.

In general, inhibition refers to the share of the control response that was lost under treatment. The term IC50 denotes the concentration that gives 50% inhibition.

Turning to `COc1ccc(C2=NC(c3ccc(Cl)cc3)C(c3ccc(Cl)cc3)N2C(=O)N2CCNC(=O)C2)c(OC(C)C)c1` (racemic) [Nutlin-3], the inhibition at 0.25 µM came out at 11.8% in the test on H460 cells [1] (H460 cells, AST 0.5 nM, AST+Nutlin-3 0.5+0.25, read-out: Inhibition rate result, experimental group 1) and 11.8% with H460 cells [1] (H460 cells, AST 1.5 nM, AST+Nutlin-3 1.5+0.25, read-out: Inhibition rate result, experimental group 4). For the same compound, the inhibition at 0.5 µM in the test on H460 cells [1] (H460 cells, AST 0.5 nM, AST+Nutlin-3 0.5+0.5, read-out: Inhibition rate result, experimental group 2) worked out at 17.3%; in the test on H460 cells [1] (H460 cells, AST 1.5 nM, AST+Nutlin-3 1.5+0.5, read-out: Inhibition rate result, experimental group 5) it was 17.3%. For the same compound, the inhibition at 1 µM with H460 cells [1] (H460 cells, AST 0.5 nM, AST+Nutlin-3 0.5+1, read-out: Inhibition rate result, experimental group 3) turned out to be 18.3%; in the test on H460 cells [1] (H460 cells, AST 1.5 nM, AST+Nutlin-3 1.5+1, read-out: Inhibition rate result, experimental group 6) it was 18.3%. The inhibition at 7.5 µM with HPAF-II cells (AST 20 nM, AST+Nutlin-3 20+7.5, read-out: Inhibition rate result, experimental group 1) was found to be 8.54%; in the test with HPAF-II cells (AST 60 nM, AST+Nutlin-3 60+7.5, read-out: Inhibition rate result, experimental group 4) it was 8.54%. The inhibition at 10 µM with HPAF-II cells (AST 20 nM, AST+Nutlin-3 20+10, read-out: Inhibition rate result, experimental group 2) is 52.5%; in the test on HPAF-II cells (AST 60 nM, AST+Nutlin-3 60+10, read-out: Inhibition rate result, experimental group 5), 52.5%. Also, the inhibition at 15 µM was determined as 73.9% in the test on HPAF-II cells (AST 20 nM, AST+Nutlin-3 20+15, read-out: Inhibition rate result, experimental group 3) and 73.9% in the test with HPAF-II cells (AST 60 nM, AST+Nutlin-3 60+15, read-out: Inhibition rate result, experimental group 6). In addition, the “cell cycle (G0/G1, S, G2/M phases)” value in the test on H460 cells [2] is “did not significantly alter the cell cycle”.

As to `C[C@H](OP(=O)(N1CC1)N1CC1)c1ccc([N+](=O)[O-])c(Oc2cccc(C(=O)N(C)C)c2)c1` [AST-3424], the “proliferation inhibition rate of AST-3424” value in the test with H460 cells [1] (H460 cells, Nutlin-3 added 2 hours in advance, followed by AST-3424, 72 hours (Figure 1)) is reported as “increase significantly”. For the same compound, the IC50 in the test on H460 cells [1] (H460 WT, normoxia, alone or with 3µM AST-3021 as labelled (Example 10)) was found to be 0.23 nM; in the test with H460 cells [1] (NCI-H460, normoxia, alone or with 3 µM AST-3021 as labelled (Example 13)) it was 0.43 nM; with H460 P53 KO #1 (H460 P53 KO # 1, normoxia, alone or with 3µM AST-3021 as labelled (Example 10)), 11.3 nM; in the test on H460 P53 KO #1 (NCI-H460 P53KO # 1, normoxia, alone or with 3 µM AST-3021 as labelled (Example 13)), 5.45 nM; with H460 P53 KO #12, 1.99 nM; with H460 P53 KO #7, 23.1 nM. For the same compound, the “cell cycle (G0/G1, S, G2/M phases)” value in the test on H460 cells [2] is given as “did not significantly alter the cell cycle”. Also, the “G2/M cell cycle arrest” value in the test on H460 cells [2] (second experiment, 0.03-1 nM AST-3424, 5 µM Nutlin-3, AST-3424 pre-treatment 2 hours (Figure 6)) is listed as “concentration-dependent G2/M cell cycle arrest”.
